{"source": "ChEMBL document CHEMBL4419173", "about": "“Small-molecule inhibitors targeting g-protein-coupled rho guanine nucleotide exchange factors” (2014)", "key": {"[1]": {"molecular_target": "Rho-associated protein kinase 2/Transforming protein RhoA (Homo sapiens) (UniProt O75116+P61586)", "sequence (O75116 whole entry, looked up, the tested form may be a part)": "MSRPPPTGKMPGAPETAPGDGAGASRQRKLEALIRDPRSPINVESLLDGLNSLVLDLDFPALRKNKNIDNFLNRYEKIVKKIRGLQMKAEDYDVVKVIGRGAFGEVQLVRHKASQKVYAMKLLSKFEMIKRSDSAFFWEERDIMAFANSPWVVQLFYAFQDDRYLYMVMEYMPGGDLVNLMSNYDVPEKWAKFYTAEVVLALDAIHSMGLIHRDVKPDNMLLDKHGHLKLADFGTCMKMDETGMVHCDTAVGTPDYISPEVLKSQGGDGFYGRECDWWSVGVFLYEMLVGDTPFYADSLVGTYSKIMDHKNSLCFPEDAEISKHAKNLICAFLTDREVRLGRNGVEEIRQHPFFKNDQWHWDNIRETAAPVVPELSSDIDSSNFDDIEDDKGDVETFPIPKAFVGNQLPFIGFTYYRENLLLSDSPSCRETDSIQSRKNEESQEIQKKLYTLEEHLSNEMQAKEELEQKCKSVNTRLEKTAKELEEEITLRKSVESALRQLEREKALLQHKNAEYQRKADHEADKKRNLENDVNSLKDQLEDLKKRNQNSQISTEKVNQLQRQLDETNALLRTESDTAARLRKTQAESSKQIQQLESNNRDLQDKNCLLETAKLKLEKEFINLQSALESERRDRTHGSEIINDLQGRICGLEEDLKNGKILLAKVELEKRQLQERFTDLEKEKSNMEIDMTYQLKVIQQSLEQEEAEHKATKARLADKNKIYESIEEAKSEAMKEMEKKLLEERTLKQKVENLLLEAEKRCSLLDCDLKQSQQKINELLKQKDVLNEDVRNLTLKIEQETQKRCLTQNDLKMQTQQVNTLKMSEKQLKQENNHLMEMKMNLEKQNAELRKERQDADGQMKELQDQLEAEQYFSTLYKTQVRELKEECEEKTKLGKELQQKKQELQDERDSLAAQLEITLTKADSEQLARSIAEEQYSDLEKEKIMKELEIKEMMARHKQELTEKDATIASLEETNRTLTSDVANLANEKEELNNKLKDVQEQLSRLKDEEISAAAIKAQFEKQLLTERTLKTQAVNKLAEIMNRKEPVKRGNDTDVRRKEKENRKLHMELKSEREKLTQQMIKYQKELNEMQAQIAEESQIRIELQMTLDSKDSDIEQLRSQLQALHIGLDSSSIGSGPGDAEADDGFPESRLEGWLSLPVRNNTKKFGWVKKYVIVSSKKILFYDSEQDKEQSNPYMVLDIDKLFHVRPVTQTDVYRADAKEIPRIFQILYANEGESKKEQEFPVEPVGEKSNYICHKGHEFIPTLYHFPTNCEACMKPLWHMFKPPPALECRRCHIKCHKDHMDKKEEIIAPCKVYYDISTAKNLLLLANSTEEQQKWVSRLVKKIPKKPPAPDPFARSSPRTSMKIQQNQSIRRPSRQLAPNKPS", "sequence (P61586 whole entry, looked up, the tested form may be a part)": "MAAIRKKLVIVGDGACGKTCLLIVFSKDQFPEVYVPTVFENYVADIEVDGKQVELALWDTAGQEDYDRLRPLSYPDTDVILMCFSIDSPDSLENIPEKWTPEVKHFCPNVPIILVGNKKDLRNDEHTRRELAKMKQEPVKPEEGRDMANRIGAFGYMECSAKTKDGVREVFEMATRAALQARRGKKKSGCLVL", "experiment": "Inhibition of human ROCK2 expressed in mouse NIH/3T3 cells assessed as reduction in human full length RhoA (1 to 193 residues) interaction with ROCK2 at 50 to 200 uM incubated for 1 hr by Western blot analysis based His-RhoA pull-down assay", "format": "cell-based"}, "[2]": {"species": "Mus musculus", "experiment": "Inhibition of RhoGEF in mouse NIH/3T3 cells assessed as inhibition of 10% calf serum-induced RhoA-GTP formation by measuring relative RhoA-GTP level at 50 uM incubated for 24 hrs by densitometry (reference value: 1)", "format": "cell-based"}, "[3]": {"molecular_target": "Rho guanine nucleotide exchange factor 12 (Homo sapiens, UniProt Q9NZN5, V1099A)", "sequence (Q9NZN5 2-1544 V1099A limits assumed)": "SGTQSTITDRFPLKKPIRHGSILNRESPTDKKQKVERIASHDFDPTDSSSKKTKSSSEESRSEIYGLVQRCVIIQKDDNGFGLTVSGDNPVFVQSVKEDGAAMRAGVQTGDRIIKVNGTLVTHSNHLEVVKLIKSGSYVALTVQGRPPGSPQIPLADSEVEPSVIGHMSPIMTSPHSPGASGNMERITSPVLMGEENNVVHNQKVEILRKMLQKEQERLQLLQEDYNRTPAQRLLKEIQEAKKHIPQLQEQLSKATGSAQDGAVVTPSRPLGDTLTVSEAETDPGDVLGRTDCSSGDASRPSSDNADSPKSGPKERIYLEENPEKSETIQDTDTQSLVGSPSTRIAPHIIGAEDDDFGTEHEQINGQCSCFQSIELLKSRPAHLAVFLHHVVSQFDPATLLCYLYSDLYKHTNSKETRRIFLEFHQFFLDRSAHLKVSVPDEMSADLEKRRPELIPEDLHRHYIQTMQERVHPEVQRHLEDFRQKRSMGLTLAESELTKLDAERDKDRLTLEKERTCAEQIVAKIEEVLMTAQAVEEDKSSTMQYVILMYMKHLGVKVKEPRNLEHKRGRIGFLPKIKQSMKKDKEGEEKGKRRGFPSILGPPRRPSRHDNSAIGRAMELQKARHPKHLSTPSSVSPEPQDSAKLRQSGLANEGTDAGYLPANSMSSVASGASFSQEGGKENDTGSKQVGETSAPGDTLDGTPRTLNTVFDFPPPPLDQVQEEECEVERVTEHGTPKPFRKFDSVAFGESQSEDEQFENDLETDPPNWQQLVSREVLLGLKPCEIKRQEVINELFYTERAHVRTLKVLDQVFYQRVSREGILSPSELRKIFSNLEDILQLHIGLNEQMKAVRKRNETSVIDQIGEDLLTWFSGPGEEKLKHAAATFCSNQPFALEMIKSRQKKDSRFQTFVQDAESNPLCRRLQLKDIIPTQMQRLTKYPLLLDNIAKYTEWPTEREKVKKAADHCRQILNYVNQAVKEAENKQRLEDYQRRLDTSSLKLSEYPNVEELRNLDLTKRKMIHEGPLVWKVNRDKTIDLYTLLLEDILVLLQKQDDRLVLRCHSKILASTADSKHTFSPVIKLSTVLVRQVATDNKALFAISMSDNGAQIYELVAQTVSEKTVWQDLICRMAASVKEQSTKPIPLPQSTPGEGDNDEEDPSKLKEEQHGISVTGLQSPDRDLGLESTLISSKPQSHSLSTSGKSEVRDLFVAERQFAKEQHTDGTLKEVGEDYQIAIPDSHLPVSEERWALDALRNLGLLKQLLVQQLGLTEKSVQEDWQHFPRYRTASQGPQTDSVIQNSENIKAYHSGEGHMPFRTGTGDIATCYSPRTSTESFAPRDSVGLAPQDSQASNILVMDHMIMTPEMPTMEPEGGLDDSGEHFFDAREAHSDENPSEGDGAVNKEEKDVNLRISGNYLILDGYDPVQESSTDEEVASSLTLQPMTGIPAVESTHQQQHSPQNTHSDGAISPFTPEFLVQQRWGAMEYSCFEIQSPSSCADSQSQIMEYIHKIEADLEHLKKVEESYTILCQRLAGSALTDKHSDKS", "experiment": "Binding affinity to recombinant human LARG (765 to 1138 residues) V1099A mutant by microscale thermophoresis analysis"}, "[4]": {"molecular_target": "Protein diaphanous homolog 1/Transforming protein RhoA (Homo sapiens) (UniProt P61586+O60610)", "experiment": "Inhibition of human mDia1 expressed in mouse NIH/3T3 cells assessed as reduction in human full length RhoA (1 to 193 residues) interaction with mDia1 at 50 to 100 uM incubated for 1 hr by Western blot analysis based His-RhoA pull-down assay", "format": "cell-based"}, "[5]": {"species": "Mus musculus", "experiment": "Inhibition of RhoGEF in mouse NIH/3T3 cells assessed as inhibition of 10% calf serum-induced RhoA-GTP formation by measuring relative RhoA-GTP level at 50 uM in presence of 50 uM Rhosin/G04 incubated for 24 hrs by densitometry (reference value: 1)", "format": "cell-based"}}, "note": "Active and inactive are the calls of the source. The rule behind the calls is not given here.", "data": [{"smiles": "Cc1cccc(COc2cccc(/C=C3\\C(=O)NN(c4ccccc4)C3=O)c2)c1", "values": [{"measurement": "inhibition", "setting": "[1]", "result": "inactive"}, {"measurement": "fold change (FC)", "setting": "[2]", "result": 0.26}, {"measurement": "Kd", "setting": "[3]", "result": 79, "unit": "nM"}, {"measurement": "inhibition", "setting": "[4]", "result": "inactive"}, {"measurement": "fold change (FC)", "setting": "[5]", "result": 0}]}]}
